Measurements taken from US7517874B2 (priority 2007, dated 2009).
Where two headings read alike, the source gives them in different places.

Tests used:
[1] = biological target: human CB1 receptor (hCB1) (Homo sapiens, UniProt P21554); assay: cell-based; assay type: cell-based
Outline: (§1)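 Agonism or inverse agonism was assessed as change in intracellular cAMP in CHO-K1 cells expressing human CB1 or rat CB2 (genomic DNA, pcDNA3.1).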

[2] = biological target: T1, rat CB2 receptor (rCB2) (Rattus norvegicus, UniProt Q9QZN9); assay: cell-based; assay type: cell-based; conditions: for +/− RCB2: agonist or inverse agonist at rCB2
T1 sequence (Q9QZN9 1-360): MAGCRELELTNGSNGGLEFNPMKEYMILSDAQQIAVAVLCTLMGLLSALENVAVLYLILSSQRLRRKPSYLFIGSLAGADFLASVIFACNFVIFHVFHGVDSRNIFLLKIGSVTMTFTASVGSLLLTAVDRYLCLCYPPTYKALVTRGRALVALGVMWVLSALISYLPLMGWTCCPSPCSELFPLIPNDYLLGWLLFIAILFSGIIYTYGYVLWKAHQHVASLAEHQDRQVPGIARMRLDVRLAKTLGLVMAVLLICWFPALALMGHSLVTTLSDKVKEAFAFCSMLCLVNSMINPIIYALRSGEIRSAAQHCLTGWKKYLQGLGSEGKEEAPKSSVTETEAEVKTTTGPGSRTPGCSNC
Outline: as §1

[3] = groups >100 nM-10 μM and >10 μM, cAMP, CHO-K1 hCB1, read-out: EC50 HCB1

Chain of human CB1 receptor (hCB1) (P21554 whole entry): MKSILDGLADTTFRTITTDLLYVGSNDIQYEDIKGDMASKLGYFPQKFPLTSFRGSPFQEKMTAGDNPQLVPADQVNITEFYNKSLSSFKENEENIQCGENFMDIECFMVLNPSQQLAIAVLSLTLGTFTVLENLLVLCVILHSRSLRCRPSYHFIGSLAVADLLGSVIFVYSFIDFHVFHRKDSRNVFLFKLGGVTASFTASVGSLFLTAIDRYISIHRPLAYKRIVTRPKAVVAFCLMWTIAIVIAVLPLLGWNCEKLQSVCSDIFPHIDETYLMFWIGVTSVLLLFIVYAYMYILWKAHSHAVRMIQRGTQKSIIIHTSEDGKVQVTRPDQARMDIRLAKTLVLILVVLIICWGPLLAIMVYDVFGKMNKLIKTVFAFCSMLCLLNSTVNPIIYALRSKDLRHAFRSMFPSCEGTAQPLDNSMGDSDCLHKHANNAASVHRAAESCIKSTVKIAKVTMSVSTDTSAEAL

SMILES	EC50 [1, 3] [nM]	+/− RCB2 [2]	EC50 [1] [nM]	EC50 ([2]; groups >100 nM-10 μM and >10 μM, cAMP, CHO-K1 rCB2, read-out: EC50 RCB2) [nM]
O=C(Nc1ccccc1)c1nc(-c2ccccc2)n2c1CN(C(=O)C1CC1)CC2 [Compound 129, 7-(cyclopropanecarbonyl)-N,3-diphenyl-5,6,7,8-tetrahydroimidazo[1,5-a]pyrazine-1-carboxamide]	> 10000	−		
CC(C)CCNC(=O)c1nc(-c2ccc(Cl)cc2)n2c1CN(C(=O)c1ccccc1)CC2 [Compound 130, 7-benzoyl-3-(4-chlorophenyl)-N-isopentyl-5,6,7,8-tetrahydroimidazo[1,5-a]pyrazine-1-carboxamide]		−	> 10000	
CC(C)CCNC(=O)c1nc(-c2ccc(Cl)cc2)n2c1CN(C(=O)C1CC1)CC2 [Compound 131, 3-(4-chlorophenyl)-7-(cyclopropanecarbonyl)-N-isopentyl-5,6,7,8-tetrahydroimidazo[1,5-a]pyrazine-1-carboxamide]		−	> 10000	
C[C@@H](NC(=O)c1nc(-c2ccccc2)n2c1CN(C(=O)C1CC1)CC2)C1CCCCC1 [Compound 132, (R)-N-(1-cyclohexylethyl)-7-(cyclopropanecarbonyl)-3-phenyl-5,6,7,8-tetrahydroimidazo[1,5-a]pyrazine-1-carboxamide]		−	> 10000	
C[C@@H](NC(=O)c1nc(-c2ccccc2)n2c1CN(C(=O)C(C)(C)C)CC2)C1CCCCC1 [Compound 133, (R)-N-(1-cyclohexylethyl)-3-phenyl-7-pivaloyl-5,6,7,8-tetrahydroimidazo[1,5-a]pyrazine-1-carboxamide]		−	> 10000	
O=C(NCC1CCOCC1)c1nc(-c2ccccc2)n2c1CN(C(=O)C1CC1)CC2 [Compound 134, 7-(cyclopropanecarbonyl)-3-phenyl-N-((tetrahydro-2H-pyran-4-yl)methyl)-5,6,7,8-tetrahydroimidazo[1,5-a]pyrazine-1-carboxamide]	> 10000	−		
O=C(NCC1CCOCC1)c1nc(-c2ccccc2)n2c1CN(C(=O)C1CCOC1)CC2 (stereo not shown) [Compound 135, 3-phenl-N-((tetrahydro-2H-pyran-4-yl)methyl)-7-(tetrahydrofuran-3-carbonyl)-5,6,7,8-tetrahydroimidazo[1,5-a]pyrazine-1-carboxamide]	> 10000			> 10000
O=C(NC1CCCCC1)c1nc(-c2ccccc2)n2c1CN(C(=O)C1CC1)CC2 [Compound 136, N-cyclohexyl-7-(cyclopropanecarbonyl)-3-phenyl-5,6,7,8-tetrahydroimidazo[1,5-a]pyrazine-1-carboxamide]	> 10000	−		
CC(C)(C)C(=O)N1CCn2c(-c3ccccc3)nc(C(=O)NC3CCCCC3)c2C1 [Compound 137, N-cyclohexyl-3-phenyl-7-pivaloyl-5,6,7,8-tetrahydroimidazo[1,5-a]pyrazine-1-carboxamide]	> 10000	−		
O=C(NC1CCCCC1)c1nc(-c2ccccc2)n2c1CN(C(=O)c1ccoc1)CC2 [Compound 138, N-cyclohexyl-7-(furan-3-carbonyl)-3-phenyl-5,6,7,8-tetrahydroimidazo[1,5-a]pyrazine-1-carboxamide]	> 10000	−		
C[C@@H](NC(=O)c1nc(-c2ccccc2)n2c1CN(C(=O)C1CCOC1)CC2)C1CCCCC1 (stereo partly drawn) [Compound 139, N-((R)-1-cyclohexylethyl)-3-phenyl-7-(tetrahydrofuran-3-carbonyl)-5,6,7,8-tetrahydroimidazo[1,5-a]pyrazine-1-carboxamide]		−	> 10000	
C[C@@H](NC(=O)c1nc(-c2ccccc2)n2c1CN(CCO)CC2)C1CCCCC1 [Compound 140, (R)-N-(1-cyclohexylethyl)-7-(2-hydroxyethyl)-3-phenyl-5,6,7,8-tetrahydroimidazo[1,5-a]pyrazine-1-carboxamide]		−	> 10000	
O=C(NC1CCCCC1)c1nc(-c2ccccc2)n2c1CN(CC1CCOC1)CC2 (stereo not shown) [Compound 141, N-cyclohexyl-3-phenyl-7-((tetrahydrofuran-3-yl)methyl)-5,6,7,8-tetrahydroimidazo[1,5-a]pyrazine-1-carboxamide]		−	> 10000	
CC(C)CN1CCn2c(-c3ccccc3)nc(C(=O)NC3C4(C)CCC(C4)C3(C)C)c2C1 (stereo not shown) [Compound 142, 7-isobutyl-3-phenyl-N-(1,3,3-trimethylbicyclo[2.2.1]heptan-2-yl)-5,6,7,8-tetrahydroimidazo[1,5-a]pyrazine-1-carboxamide]		−	> 10000	
CC12CCC(C1)C(C)(C)C2NC(=O)c1nc(-c2ccccc2)n2c1CN(CCO)CC2 (stereo not shown) [Compound 143, 7-(2-hydroxyethyl)-3-phenyl-N-(1,3,3-trimethylbicyclo[2.2.1]heptan-2-yl)-5,6,7,8-tetrahydroimidazo[1,5-a]pyrazine-1-carboxamide]		−	> 10000	
CCN1CCn2c(-c3ccccc3)nc(C(=O)NC3C4(C)CCC(C4)C3(C)C)c2C1 (stereo not shown) [Compound 144, 7-ethyl-3-phenyl-N-(1,3,3-trimethylbicyclo[2.2.1]heptan-2-yl)-5,6,7,8-tetrahydroimidazo[1,5-a]pyrazine-1-carboxamide]		−	> 10000	
CC(C)CN1CCn2c(-c3ccccc3)nc(C(=O)N[C@@H](C)c3ccccc3)c2C1 [Compound 145, (S)-7-isobutyl-3-phenyl-N-(1-phenylethyl)-5,6,7,8-tetrahydroimidazo[1,5-a]pyrazine-1-carboxamide]		−	> 10000	
C[C@H](NC(=O)c1nc(-c2ccccc2)n2c1CN(CCO)CC2)c1ccccc1 [Compound 146, (S)-7-(2-hydroxyethyl)-3-phenyl-N-(1-phenylethyl)-5,6,7,8-tetrahydroimidazo[1,5-a]pyrazine-1-carboxamide]		−	> 10000	
CCN1CCn2c(-c3ccccc3)nc(C(=O)N[C@@H](C)c3ccccc3)c2C1 [Compound 147, (S)-7-ethyl-3-phenyl-N-(1-phenylethyl)-5,6,7,8-tetrahydroimidazo[1,5-a]pyrazine-1-carboxamide]		−	> 10000	
CNC(=O)[C@@H](NC(=O)c1nc(-c2ccccc2)n2c1CN(CC(C)C)CC2)C(C)(C)C [Compound 148, (S)-N-(3,3-dimethyl-1-(methylamino)-1-oxobutan-2-yl)-7-isobutyl-3-phenyl-5,6,7,8-tetrahydroimidazo[1,5-a]pyrazine-1-carboxamide]		−	> 10000	
CCN1CCn2c(-c3ccccc3)nc(C(=O)N[C@H](C(=O)NC)C(C)(C)C)c2C1 [Compound 149, (S)-N-(3,3-dimethyl-1-(methyalmino)-1-oxobutan-2-yl)-7-ethyl-3-phenyl-5,6,7,8-tetrahydroimidazo[1,5-a]pyrazine-1-carboxamide]		−	> 10000	
CC(C)CN1CCn2c(-c3ccccc3)nc(C(=O)Nc3ccccc3)c2C1 [Compound 150, 7-isobutyl-N,3-diphenyl-5,6,7,8-tetrahydroimidazo[1,5-a]pyrazine-1-carboxamide]		−	> 10000	
O=C(Nc1ccccc1)c1nc(-c2ccccc2)n2c1CN(CCO)CC2 [Compound 151, 7-(2-hydroxyethyl)-N,3-diphenyl-5,6,7,8-tetrahydroimidazo[1,5-a]pyrazine-1-carboxamide]	> 10000	−		
CCN1CCn2c(-c3ccccc3)nc(C(=O)Nc3ccccc3)c2C1 [Compound 152, 7-ethyl-N,3-diphenyl-5,6,7,8-tetrahydroimidazo[1,5-a]pyrazine-1-carboxamide]		−	> 10000	
CNC(=O)[C@@H](NC(=O)c1nc(-c2ccccc2)n2c1CN(CCO)CC2)C(C)(C)C [Compound 153, (S)-N-(3,3-dimethyl-1-(methylamino)-1-oxobutan-2-yl)-7-(2-hydroxyethyl)-3-phenyl-5,6,7,8-tetrahydroimidazo[1,5-a]pyrazine-1-carboxamide]		−	> 10000	
CCCN1CCn2c(-c3ccccc3)nc(C(=O)Nc3ccccc3)c2C1 [Compound 154, N,3-diphenyl-7-propyl-5,6,7,8-tetrahydroimidazo[1,5-a]pyrazine-1-carboxamide]		−	> 10000	
CC(C)CN1CCn2c(-c3ccccc3)nc(C(=O)NN3CCCCC3)c2C1 [Compound 155, 7-isobutyl-3-phenyl-N-(piperidin-1-yl)-5,6,7,8-tetrahydroimidazo[1,5-a]pyrazine-1-carboxamide]		−	> 10000	
O=C(NN1CCCCC1)c1nc(-c2ccccc2)n2c1CN(CCO)CC2 [Compound 156, 7-(2-hydroxyethyl)-3-phenyl-N-(piperidin-1-yl)-5,6,7,8-tetrahydroimidazo[1,5-a]pyrazine-1-carboxamide]	> 10000	−		
CC(C)CCNC(=O)c1nc(-c2ccc(Cl)cc2)n2c1CN(CC(C)C)CC2 [Compound 157, 3-(4-chlorophenyl)-7-isobutyl-N-isopentyl-5,6,7,8-tetrahydroimidazo[1,5-a]pyrazine-1-carboxamide]		−	> 10000	
